Data from the NIST ThermoML archive (doi:10.1021/je8004134).

Experiment: an = ratio of the nth substance listed, in mol/kg
Settings: 298.15 K, 101 kPa, Liquid; for speed of sound: Sing-around technique in a fixed-path interferometer; for mass density: Vibrating tube method

CC(=O)N(C)C [N,N-dimethylethanamide] + [Cl][Cu][Cl]
a2 = 0
Settings | mass density [kg/m3] | speed of sound [m/s]
– | 936.304 | 1455.4

C[S+](C)[O-] [dimethyl sulfoxide] + [Cl][Cu][Cl]
a2 = 0
Settings | mass density [kg/m3] | speed of sound [m/s]
– | 1095.2 | 1484.1

[Cu+2].[O-][Cl+3]([O-])([O-])[O-].[O-][Cl+3]([O-])([O-])[O-] [copper perchlorate] + C[S+](C)[O-]
Settings | mass density [kg/m3] | speed of sound [m/s]
a1 = 0.01425 | 1098.31 | 1485
a1 = 0.02779 | 1101.26 | 1485.9
a1 = 0.0419 | 1104.35 | 1486.8
a1 = 0.05636 | 1107.54 | 1487.7
a1 = 0.07067 | 1110.7 | 1488.7
a1 = 0.08366 | 1113.58 | 1489.5
a1 = 0.09783 | 1116.73 | 1490.4
a1 = 0.1114 | 1119.78 | 1491.4
a1 = 0.1251 | 1122.85 | 1492.2
a1 = 0.1384 | 1125.85 | 1493.3

C[S+](C)[O-] [dimethyl sulfoxide] + [Cl][Co][Cl]
a2 = 0
Settings | mass density [kg/m3] | speed of sound [m/s]
– | 1095.19 | 1484.1

CC(=O)N(C)C [N,N-dimethylethanamide] + [Ni+2].[O-][Cl+3]([O-])([O-])[O-].[O-][Cl+3]([O-])([O-])[O-]
a2 = 0
Settings | mass density [kg/m3] | speed of sound [m/s]
– | 936.168 | 1455.4

[Co+2].[O-][Cl+3]([O-])([O-])[O-].[O-][Cl+3]([O-])([O-])[O-] [cobalt(II) perchlorate] + C[S+](C)[O-]
Settings | mass density [kg/m3] | speed of sound [m/s]
a1 = 0.0215 | 1099.78 | 1485.5
a1 = 0.03236 | 1102.1 | 1486.2
a1 = 0.04309 | 1104.4 | 1486.9
a1 = 0.05528 | 1107.03 | 1487.7
a1 = 0.06505 | 1109.14 | 1488.3
a1 = 0.08726 | 1113.97 | 1489.8
a1 = 0.1069 | 1118.27 | 1491
a1 = 0.1285 | 1123.03 | 1492.5
a1 = 0.148 | 1127.38 | 1493.7
a1 = 0.1695 | 1132.18 | 1495.2
a1 = 0.1911 | 1137.05 | 1496.6

C[S+](C)[O-] [dimethyl sulfoxide] + [Cl-].[Cl-].[Zn+2]
a2 = 0
Settings | mass density [kg/m3] | speed of sound [m/s]
– | 1095.2 | 1484.1

C[S+](C)[O-] [dimethyl sulfoxide] + [O-][Cl+3]([O-])([O-])[O-].[O-][Cl+3]([O-])([O-])[O-].[Zn+2]
a2 = 0
Settings | mass density [kg/m3] | speed of sound [m/s]
– | 1095.2 | 1484.1

[Mn+2].[O-][Cl+3]([O-])([O-])[O-].[O-][Cl+3]([O-])([O-])[O-] [manganese (II) perchlorate] + CC(=O)N(C)C
Settings | mass density [kg/m3] | speed of sound [m/s]
a1 = 0.03006 | 942.406 | 1459.5
a1 = 0.05909 | 948.611 | 1463.1
a1 = 0.08863 | 954.924 | 1466.8
a1 = 0.1177 | 961.136 | 1470.4
a1 = 0.1466 | 967.302 | 1474.1
a1 = 0.1747 | 973.327 | 1477.6
a1 = 0.2018 | 979.1 | 1481.2
a1 = 0.2287 | 984.866 | 1485

[Cl-].[Cl-].[Zn+2] [zinc chloride] + C[S+](C)[O-]
Settings | mass density [kg/m3] | speed of sound [m/s]
a1 = 0.05319 | 1100.61 | 1484.1
a1 = 0.0712 | 1102.49 | 1484.2
a1 = 0.0892 | 1104.34 | 1484.5
a1 = 0.107 | 1106.22 | 1484.8
a1 = 0.1251 | 1108.12 | 1485.2
a1 = 0.1517 | 1110.9 | 1485.9
a1 = 0.1776 | 1113.65 | 1486.6

[Cl][Cu][Cl] [copper chloride] + C[S+](C)[O-]
Settings | mass density [kg/m3] | speed of sound [m/s]
a1 = 0.04097 | 1100.01 | 1485.3
a1 = 0.05136 | 1101.21 | 1485.5
a1 = 0.0616 | 1102.39 | 1485.8
a1 = 0.07134 | 1103.53 | 1486
a1 = 0.08195 | 1104.77 | 1486.2
a1 = 0.09202 | 1105.94 | 1486.4
a1 = 0.1022 | 1107.13 | 1486.6

CC(=O)N(C)C [N,N-dimethylethanamide] + [Co+2].[O-][Cl+3]([O-])([O-])[O-].[O-][Cl+3]([O-])([O-])[O-]
a2 = 0
Settings | mass density [kg/m3] | speed of sound [m/s]
– | 936.233 | 1455.4

[Cl][Co][Cl] [cobalt chloride] + C[S+](C)[O-]
Settings | mass density [kg/m3] | speed of sound [m/s]
a1 = 0.04252 | 1099.76 | 1485.1
a1 = 0.06132 | 1101.77 | 1485.6
a1 = 0.08074 | 1103.85 | 1486.2
a1 = 0.1018 | 1106.1 | 1486.7
a1 = 0.122 | 1108.29 | 1487.4
a1 = 0.1423 | 1110.49 | 1488.2
a1 = 0.1621 | 1112.63 | 1488.8
a1 = 0.1818 | 1114.77 | 1489.5
a1 = 0.202 | 1116.97 | 1490

CC(=O)N(C)C [N,N-dimethylethanamide] + [Cu+2].[O-][Cl+3]([O-])([O-])[O-].[O-][Cl+3]([O-])([O-])[O-]
a2 = 0
Settings | mass density [kg/m3] | speed of sound [m/s]
– | 936.11 | 1455.4
